# Measurements: article PMC6104039 (Nature Communications, 2018)
# Several values for one entry are separate records, joined by “and”; a condition that tells them apart may be missing. Identical values can stand only once.
# How the values were obtained:
# [1] = tested on: cultured primary myotubes; experiment: Ceramide content of cultured primary myotubes; format: cell-based, murine; details: 1 μM
# From the text: myotubes would go a long way in making the muscle component of this work more […]
# Response: We agree with the reviewer that experiments in muscle cells often allow additional mechanistic studies to be undertaken. We investigated this possibility in immortalised and primary […]
# where C18:0 ceramide is by the far the dominant ceramide species, cultured muscle cells contain much higher levels of other ceramides, particularly C16:0 (see figure below). This divergence in ceramide profile between cultured myotubes and muscle tissue in vivo has been reported by other […]
# C18:0 ceramide content in cultured primary myotubes by ~30% (P = 0.02), whilst having no […]
# profile of skeletal muscle, CerS1 inhibition experiments with myotubes would have limited translatability to the in vivo setting.
# (1 picture or pasted object on this page, not shown here)
# [2] = Plasma P053 concentration after oral dosing, LC-MS/MS; format: in vivo, mice
# Method: Plasma samples (20 μL) were extracted with 200 μL methanol containing 20 pmoles AAL(S)[27] as the internal standard. The mixtures were vortexed, then sonicated in ice water using a Bioruptor (Diagenode) for 2 min at 30 s intervals. Extracts were centrifuged at 1400 rpm for 20 min, 4 °C, to clear debris. Supernatants were transferred to 5 mL glass tubes. The remaining insoluble material was re-extracted with 1 mL 80% methanol as above, and the supernatant combined with the first extract. The extracts were evaporated under vacuum (Savant SC210 SpeedVac, Thermo Scientific). Dried extracts were reconstituted in 200 μL of 80% methanol/0.2% formic acid and stored at −20 °C. On the day of analysis, the extracts were vortexed thoroughly and centrifuged at 300 × g for 20 min before transferring 100 μL of the supernatant to glass HPLC vials.
# LC-MS/MS was performed on a TSQ Quantum Access triple quadrupole mass spectrometer in positive ion mode, coupled to an Accela UPLC system (Thermo Scientific). Extracts (20 μL) were separated on a 2 × 100 mm Eclipse XDB-C8 column with 1.8 μm particle size (Agilent Technologies), using a 7.5 min binary HPLC gradient: 0 min, 70% B ([…]); 1.5 min, 70% B; 3.5 min, 95% B; 4 min, 95% B; 4.5 min, 70% B; 7.5 min 70% B. Mobile phase A: 2 mM ammonium formate/1% formic acid in water; mobile phase B: 1 mM ammonium formate/1% formic acid in methanol. The flow rate was 0.4 mL min^−1, increasing to 0.5 mL min^−1 from 5–7 min, and column oven 30 °C. […] Visualisation and quantification of peaks was performed using Thermo Fisher’s XCalibur software v2.2.
# [3] = tested on: cerebellum; experiment: Ceramide, SM and HexCer levels in cerebellum; format: in vivo, mice; details: Chow + P053; individual mice, raw data for Supplementary Figure 7;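 as to Cer 18:1/18:0 content of cerebellum: pmol per mg cerebellum tissue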;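 as to Cer 18:1/24:0 content of cerebellum: pmol per mg cerebellum tissue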;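 as to Cer 18:1/24:1 content of cerebellum: pmol per mg cerebellum tissue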;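 as to Cer 18:2/18:0 content of cerebellum: pmol per mg cerebellum tissue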;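 as to HexCer 18:1 content of cerebellum: pmol per mg cerebellum tissue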;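 as to HexCer 20:1 content of cerebellum: pmol per mg cerebellum tissue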;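 as to HexCer 22:1 content of cerebellum: pmol per mg cerebellum tissue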;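 as to HexCer 24:0 content of cerebellum: pmol per mg cerebellum tissue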;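 as to SM 32:1 content of cerebellum: pmol per mg cerebellum tissue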;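 as to SM 34:2 content of cerebellum: pmol per mg cerebellum tissue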;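 as to SM 36:1 content of cerebellum: pmol per mg cerebellum tissue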;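 as to SM 36:2 content of cerebellum: pmol per mg cerebellum tissue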;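 as to SM 40:1 content of cerebellum: pmol per mg cerebellum tissue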;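 as to SM 40:2 content of cerebellum: pmol per mg cerebellum tissue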;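 as to SM 42:1 content of cerebellum: pmol per mg cerebellum tissue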;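 as to SM 42:2 content of cerebellum: pmol per mg cerebellum tissue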
# From the text: Supplementary Figure 7. […] Ceramide, SM, and HexCer […]
# levels in the cerebellum of vehicle- or P053-treated mice on a chow or HFD. N = 10 mice per group, except for chow vehicle group (n = 9). Mean ± SEM shown. No lipids were […]
# comparisons. C18:0 HexCer was 45% lower in the P053-treated compared to the vehicle-treated HFD group (unadjusted P value = 0.02; adjusted value P = 0.16). Raw data for these figures is provided in Supplementary Data File 1.
smiles,measurement,setting,value
"C[C@@](N)(CO)CCc1ccc(OCc2ccc(Cl)c(Cl)c2)cc1 [P053, (S)-2-amino-4-(4-(3,4-dichlorobenzyloxy)phenyl)-2-methylbutan-1-ol]",reduction of C18:0 ceramide content,[1],~ 30%
same,concentration at 6 weeks,"[2]; C57BL6/J, mouse, plasma, oral, 5 mg/kg/day for 6 weeks",~300 nM
same,half-life,"[2]; C57BL6/J, mouse, plasma, single 5 mg/kg dose by oral gavage",1680 min
same,Tmax,"[2]; C57BL6/J, mouse, plasma, single 5 mg/kg dose by oral gavage, read-out: time of maximal plasma concentration",4 h
same,maximal plasma concentration,[2]; single 5 mg/kg dose by oral gavage,20 nM
same,Cer 18:1/16:0 content of cerebellum,[3],3.617 and 2.396 and 2.239 and 1.878 and 1.763 and 7.091 and 4.235 and 4.186 and 2.745 and 2.729
same,Cer 18:1/18:0 content of cerebellum,[3],141.97 and 85.5119 and 108.595 and 104.792 and 97.4561 and 431.392 and 196.381 and 275.197 and 135.779 and 146.615
same,Cer 18:1/20:0 content of cerebellum,[3],10.8793 and 8.155 and 10.4755 and 10.5072 and 6.176 and 36.1314 and 20.5959 and 26.7359 and 12.6268 and 16.6128
same,Cer 18:1/22:0 content of cerebellum,[3],14.5276 and 15.0246 and 22.6132 and 25.2761 and 10.65 and 51.7937 and 37.5604 and 49.7318 and 29.1858 and 28.3511
same,Cer 18:1/24:0 content of cerebellum,[3],25.164 and 39.1513 and 61.4338 and 64.1688 and 24.2127 and 137.911 and 88.346 and 158.631 and 89.2495 and 92.5091
same,Cer 18:1/24:1 content of cerebellum,[3],194.92 and 106.297 and 150.541 and 182.076 and 61.3337 and 311.08 and 260.185 and 253.268 and 147.127 and 119.244
same,Cer 18:2/18:0 content of cerebellum,[3],6.1678 and 7.469 and 7.847 and 9.952 and 5.015 and 15.2517 and 13.7543 and 19.4608 and 12.754 and 10.8001
same,HexCer 16:0 content of cerebellum,[3],2.618 and 11.905 and 12.0787 and 17.3566 and 8.981 and 4.913 and 10.616 and 11.083 and 11.1713 and 10.2043
same,HexCer 18:0 content of cerebellum,[3],28.8093 and 286.922 and 231.007 and 375.961 and 165.705 and 81.8257 and 140.616 and 234.577 and 281.805 and 232.737
same,HexCer 18:1 content of cerebellum,[3],4.066 and 35.919 and 27.4449 and 39.8082 and 28.3147 and 12.0017 and 18.6127 and 33.0051 and 39.5714 and 38.2232
same,HexCer 20:0 content of cerebellum,[3],5.379 and 62.6592 and 42.0891 and 61.8563 and 40.4642 and 16.7817 and 19.6222 and 44.5602 and 56.0811 and 52.6344
same,HexCer 20:1 content of cerebellum,[3],0.8503 and 3.88 and 2.4108 and 3.569 and 3.668 and 1.176 and 1.073 and 2.879 and 4.092 and 4.073
same,HexCer 22:0 content of cerebellum,[3],103.858 and 933.202 and 709.42 and 853.076 and 744.844 and 421.086 and 403.774 and 821.636 and 996.669 and 1011.42
same,HexCer 22:1 content of cerebellum,[3],67.4582 and 171.007 and 113.764 and 201.906 and 106.093 and 35.9387 and 77.6418 and 92.6997 and 107.257 and 90.5981
same,HexCer 24:0 content of cerebellum,[3],564.043 and 4618.59 and 3773.48 and 4286.71 and 3653.78 and 2395.46 and 2157.01 and 3975.05 and 5039.63 and 4758.34
same,HexCer 24:1 content of cerebellum,[3],3233.35 and 7019.2 and 5377.98 and 7770.21 and 6449.16 and 3511.89 and 4048.72 and 5184.76 and 6290.34 and 5656.27
same,SM 32:1 content of cerebellum,[3],7.744 and 10.8885 and 9.082 and 12.3443 and 9.858 and 7.664 and 8.692 and 8.551 and 8.187 and 8.4615
same,SM 34:1 content of cerebellum,[3],82.5407 and 146.305 and 94.5019 and 129.483 and 151.913 and 73.8551 and 80.0167 and 90.7654 and 102.782 and 113.569
same,SM 34:2 content of cerebellum,[3],7.207 and 9.9108 and 8.648 and 11.4512 and 8.062 and 5.446 and 4.538 and 7.185 and 8.297 and 8.329
same,SM 36:1 content of cerebellum,[3],194.844 and 464.875 and 291.749 and 380.257 and 596.135 and 225.303 and 199.676 and 294.675 and 315.392 and 396.468
same,SM 36:2 content of cerebellum,[3],59.5005 and 77.3429 and 59.1592 and 95.459 and 61.3204 and 42.7823 and 27.3474 and 61.4896 and 55.0172 and 56.8047
same,SM 38:1 content of cerebellum,[3],38.445 and 174.02 and 119.141 and 145.805 and 204.374 and 106.701 and 86.1831 and 141.777 and 157.803 and 199.243
same,SM 38:2 content of cerebellum,[3],7.207 and 11.8634 and 6.682 and 10.3765 and 10.2552 and 3.609 and 2.903 and 5.065 and 7.083 and 7.8
same,SM 40:1 content of cerebellum,[3],51.2464 and 304.001 and 220.117 and 327.562 and 242.07 and 125.331 and 158.353 and 223.684 and 258.853 and 295.067
same,SM 40:2 content of cerebellum,[3],51.3559 and 98.4003 and 64.6125 and 113.428 and 67.3016 and 27.1328 and 51.0354 and 51.6641 and 60.1105 and 65.3939
same,SM 42:1 content of cerebellum,[3],47.6271 and 371.292 and 288.623 and 388.513 and 255.841 and 158.489 and 203.273 and 296.49 and 332.331 and 358.331
same,SM 42:2 content of cerebellum,[3],660.19 and 1132.13 and 807.257 and 1283.01 and 802.501 and 434.477 and 634.337 and 659.388 and 719.281 and 714.687
